# According to patent US8999970B2, “Administration of an anti-obesity compound to individuals with renal impairment” (Arena Pharmaceuticals, Inc., priority 2010, dated 2015):
# Entries after “also recorded” stand apart in the source; their conditions may differ.
# Assay: Dynamic moisture (vapor) sorption of Form III
# Format: physicochemical
smiles,measurement,setting,value
"C[C@H]1CNCCc2ccc(Cl)cc21.C[C@H]1CNCCc2ccc(Cl)cc21.Cl.Cl.O [(R)-8-chloro-1-methyl-2,3,4,5-tetrahydro-1H-3-benzazepine hydrochloride hemihydrate, Form III]",Hygroscopicity (DMS / DVS),,substantially non-hygroscopic; also recorded: FIG. 9: non-hygroscopic
same,Water adsorbed,90% RH,less than 0.5 wt %
